This note sets out measurements from PubChem BioAssay (NCI).

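Method: 48-hour compound exposure of cells in 96-well plates, five concentrations, linear interpolation of endpoints. At the GI50, growth is halved. Definition used: TGI = concentration required for complete inhibition of growth.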 Peptide text beside a SMILES is read from it. * marks the point of attachment. OSu = O=C1CCC(=O)N1O*; OBn = c1ccc(CO*)cc1; Bn = c1ccc(C*)cc1 Some results are limits rather than exact numbers.

What all share (assay): NCI-60 cell line screen, 48 h
Assay [1] deals with U251 CNS.
Assay [2] has as its system SF-539 CNS.
In assay [3] the test system is COLO 205 colon.
Assay [4] concerns SNB-75 CNS.
The subject of assay [5] is SW-620 colon.
In assay [6] the test system is HOP-62 NSCLC.
The subject of assay [7] is NCI-H23 lung.
In assay [8] the test system is TK-10 renal.
Assay [9] concerns T-47D breast.
Assay [10] has as its system DU-145 prostate.

Take `COc1ccc(N2C(=O)C3c4[nH]c5ccccc5c4C4CCC(C(C)(C)C)CC4C3C2=O)cc1OC` (stereo not drawn): the TGI in assay [1] is 73 µM; in assay [2] it was 34.7 µM; in assay [3], above 100 µM; in assay [4], 32.5 µM; in [5], 72 µM; in assay [6], 34.8 µM. Moreover, the TGI in assay [7] is above 100 µM.

On to `CCCN(CCC)c1c([N+](=O)[O-])cc(C(=O)N(C)C)cc1[N+](=O)[O-]`, for which the TGI is above 100 µM in assay [1]; above 100 µM in assay [2]; above 100 µM in [3]; 31.5 µM in assay [4]; above 100 µM in [7]; above 100 µM in assay [8].

With `Cc1csc2n(C)c(=O)c3ccccc3[n+]12`, the TGI in [1], in [2], in assay [3], in [5], in assay [6] and in assay [9] was above 100 µM each time. Also, the TGI in [7], in [8] and in assay [10] was above 100 µM throughout.

`CC(C)CC(NC(=O)C(N)CCC(=O)OCc1ccccc1)C(=O)NC(COCc1ccccc1)C(=O)NC(Cc1ccccc1)C(=O)ON1C(=O)CCC1=O` (stereo not drawn) (H-E(OBn)LS(Bn)F-OSu; configuration not given here): the TGI in assay [1] was 68.5 µM; in assay [4], above 100 µM; in assay [5], above 100 µM; in assay [7], 54.3 µM; in assay [8], 73.8 µM; in assay [10], above 100 µM.

Regarding `O=c1c(S(=O)(=O)Oc2ccccc2)coc2cc(F)ccc12`, the TGI in [1], in assay [2], in [4], in assay [5], in assay [6] and in [9] was above 100 µM in each case. In addition, the TGI in [7] and in assay [8] was above 100 µM each time.

With `NC(=S)N/N=C(\C(=O)Nc1ccc(Cl)c(Cl)c1)C1=NN(c2ccccc2)C(c2cccc([N+](=O)[O-])c2)CC1=O` (stereo not drawn), the TGI was 17 µM in assay [1]; 50.8 µM in [2]; 36.3 µM in assay [3]; 99.7 µM in assay [4]; 35.5 µM in [5]; 84.2 µM in [6]. Moreover, the TGI in assay [7] is 46.9 µM; in assay [8], above 100 µM.

On to `Cc1oc2c(C)c3oc(=O)cc(C)c3cc2c1CN`, for which the TGI was 74.8 µM in assay [1]; above 100 µM in assay [2]; above 100 µM in assay [3]; above 100 µM in assay [4]; above 100 µM in assay [5]; above 100 µM in assay [6]. Besides, the TGI in [7] is above 100 µM; in assay [8], 86.9 µM.

Regarding `COc1cc(C)cc(OC)c1/C=C/C(=O)O`, the TGI in assay [1], in [5], in assay [6], in [9], in [7] and in assay [8] was above 100 µM each time.

On to `Oc1ccccc1C=Nc1ccccc1N=Cc1ccccc1O`, for which the TGI in assay [1], in [2], in [3], in [5], in [6] and in assay [7] was above 100 µM in each case. Moreover, the TGI in [8] was above 100 µM.

As to `O=[N+]([O-])c1cc(Cl)ccc1S(=O)(=O)c1cc(Cl)cc2c1NCCC2`, the TGI in [2], in assay [3], in assay [4], in assay [5], in [6] and in [8] was above 100 µM each time. This compound returned a TGI in assay [10] above 100 µM.

As for `CCOC(=O)/C=C1/Nc2cc(F)c(F)cc2NC1=O`, the TGI in [1], in assay [2], in assay [3], in [4], in assay [5] and in [6] was above 100 µM each time. Besides, the TGI in [7], in assay [8] and in [10] was above 100 µM throughout.

Consider `COc1cc(C(CC(OC)OC)=C(C#N)C#N)cc(OC)c1OC`, for which the TGI in assay [1] is 91.4 µM; in assay [2] it was 37.1 µM; in [3] it was 26.6 µM; in [4] it was 82.2 µM; in [5], above 100 µM; in [7] it was above 100 µM. This compound also gave a TGI in assay [8] above 100 µM.

Turning to `CCc1cc2c(oc3c4ccccc4ccc23)c(=O)[nH]1`, the TGI in assay [1], in [2], in [4], in [5], in assay [7] and in assay [8] was above 10 µM each time. In addition, the TGI in assay [10] was above 10 µM.

For `CCCCNCC(O)c1cc(-c2ccc(C(F)(F)F)cc2)nc(-c2ccc(C(F)(F)F)cc2)c1` (stereo not drawn), the GI50 is 1.73 µM in [1]; 1.91 µM in assay [4]; 1.26 µM in assay [5]; 2.16 µM in assay [8]; 2.02 µM in assay [10]. Moreover, the TGI in assay [1] is 3.39 µM; in assay [4], 3.6 µM; in assay [5], 2.96 µM; in [8] it was 3.83 µM; in assay [10], 3.65 µM.

Consider `C/C(NC(=O)c1ccccc1)=C(/C(=O)c1ccccc1)[C@@H]1OC(C)(C)O[C@@H]1[C@H]1COC(C)(C)O1`, for which the TGI in [1] was above 100 µM; in [2], above 100 µM; in assay [3], 48.9 µM; in assay [5], 55.1 µM; in assay [6], above 100 µM; in [7] it was 93.9 µM. The TGI in assay [8] and in [10] was above 100 µM each time.

As for `Cc1ccc(Nc2ccc(Nc3ccc(C)cc3S(=O)(=O)O)c3c2C(=O)c2ccccc2C3=O)c(S(=O)(=O)O)c1`, the TGI in [1], in assay [2], in assay [3], in assay [4], in [5] and in assay [6] was above 100 µM in each case. In addition, the TGI in assay [8] is above 100 µM.

As for `Clc1cccc(N=C/C=C/Nc2cccc(Cl)c2)c1`, the TGI was determined as 30.3 µM in assay [1]; 34.2 µM in assay [2]; 29.8 µM in [3]; 43.9 µM in [5]; 30.7 µM in [6]; 54 µM in assay [7]. Moreover, the TGI was above 100 µM in assay [8] and 96.2 µM in assay [10].
